Results reported in US10874599B2, “Composition for inhibiting micro-organisms” (Clariant International Ltd., priority 2016, dated 2020).

Legend:
Experiment in all cases: MIC agar dilution test
Format in all cases: cell-based
Aspergillus brasiliensis = settings: Experimental 1; Sabouraud-4% Dextrose-Agar, pH 5.6 (+/−0.2)
Method: (§1) For testing the inhibition of bacteria, Composition 6 from Table 1 above was diluted in butylpolyglycol and added in different concentrations to liquid Caso-Agar at 50° C. and is buffered to pH 7 (+/−0.2). For testing the inhibition of yeast and mold, the Composition 6 was diluted in butylpolyglycol and added in different concentrations to liquid Sabouraud-4% Dextrose-Agar at 50° C. and is buffered to pH 5.6 (+/−0.2). Each of the solutions is poured into a petri-dish and inoculated with the same amount of bacteria, yeast or mold respectively. The minimum inhibitory concentration (MIC) is the lowest concentration of Composition 6 that inhibits the growth of the respective microorganism where the next lowest dilution fails to inhibit the growth of said microorganism.
(§2) A similar experiment was carried out versus Experimental 1. The composition employed in this second experiment is almost identical in composition to Composition 6 from Table 1 above, differing only slightly in the exact levels of the components. Composition 6a is according to the first aspect of the present invention. Here, a comparison is made versus the efficacy of phenoxyethanol, alone and in combination with composition 6a.

Aspergillus terreus = settings: Experimental 1; Sabouraud-4% Dextrose-Agar, pH 5.6 (+/−0.2)
Method: as §1, §2

Candida albicans = settings: Experimental 1; Sabouraud-4% Dextrose-Agar, pH 5.6 (+/−0.2)
Method: as §1, §2

Candida parapsilosis = settings: Experimental 1; Sabouraud-4% Dextrose-Agar, pH 5.6 (+/−0.2)
Method: as §1, §2

Citrobacter freundii = settings: Experimental 1; Caso-Agar, pH 7 (+/−0.2)
Method: as §1, §2

Enterobacter aerogenes = settings: Experimental 1; Caso-Agar, pH 7 (+/−0.2)
Method: as §1, §2

Enterobacter gergovia = settings: Experimental 1; Caso-Agar, pH 7 (+/−0.2)
Method: as §1, §2

Escherichia coli = settings: Experimental 1; Caso-Agar, pH 7 (+/−0.2)
Method: as §1, §2

Fusarium solani = settings: Experimental 1; Sabouraud-4% Dextrose-Agar, pH 5.6 (+/−0.2)
Method: as §1, §2

Klebsiella pneumoniae = settings: Experimental 1; Caso-Agar, pH 7 (+/−0.2)
Method: as §1, §2

Penicillium funicolosium = settings: Experimental 1; Sabouraud-4% Dextrose-Agar, pH 5.6 (+/−0.2)
Method: as §1, §2

Penicillium minioluteum = settings: Experimental 1; Sabouraud-4% Dextrose-Agar, pH 5.6 (+/−0.2)
Method: as §1, §2

Pseudomonas aeruginosa = settings: Experimental 1; Caso-Agar, pH 7 (+/−0.2)
Method: as §1, §2

Saccharomyces cerevisiae = settings: Experimental 1; Sabouraud-4% Dextrose-Agar, pH 5.6 (+/−0.2)
Method: as §1, §2

Staphylococcus aureus = settings: Experimental 1; Caso-Agar, pH 7 (+/−0.2)
Method: as §1, §2

Brevibacterium linens = settings: Experimental 1; Caso-Agar, pH 7 (+/−0.2)
Method: as §1

Cornyebacterium jeikeium = settings: Experimental 1; Caso-Agar, pH 7 (+/−0.2)
Method: as §1

Cornyebacterium xerosis = settings: Experimental 1; Caso-Agar, pH 7 (+/−0.2)
Method: as §1

Malassezia furfur = settings: Experimental 1; Sabouraud-4% Dextrose-Agar, pH 5.6 (+/−0.2)
Method: as §1

Malassezia pachydermatis = settings: Experimental 1; Sabouraud-4% Dextrose-Agar, pH 5.6 (+/−0.2)
Method: as §1

Malassezia sympiodalis = settings: Experimental 1; Sabouraud-4% Dextrose-Agar, pH 5.6 (+/−0.2)
Method: as §1

Staph. Epidermis = settings: Experimental 1; Caso-Agar, pH 7 (+/−0.2)
Method: as §1

Streptococcus mutans = settings: Experimental 1; Caso-Agar, pH 7 (+/−0.2)
Method: as §1

Measured: MIC

Sorbitan Caprylate
600 ppm: Saccharomyces cerevisiae | Malassezia furfur
10000 ppm: Citrobacter freundii | Enterobacter aerogenes | Enterobacter gergovia | Escherichia coli | Pseudomonas aeruginosa | Staph. Epidermis
400 ppm: Penicillium funicolosium | Penicillium minioluteum | Malassezia pachydermatis | Malassezia sympiodalis
2000 ppm: Cornyebacterium xerosis | Streptococcus mutans
4000 ppm: Brevibacterium linens | Cornyebacterium jeikeium
800 ppm: all other assays above
